# From patent US20170156315A1, “METHODS AND COMPOSITIONS OF GRANULE FORMULATIONS” (AgroFresh Inc., priority 2010, published 2017)
# Where “and” joins values, the source holds several entries; their conditions need not be identical. Identical values can stand only once.
# Tested on: rice plants
# Test: Treatment of rice plants in open fields, yield
# Type: in vivo
# Conditions: rice field trial, single application of 50 g a.i./hectare 1-MCP with sample 7-3
# Text: Assessment of Improvement to Crop Yield—Each treated plot is compared to an appropriate untreated control plot. The outcome is reported as “DY %” (Delta Yield Percent), which is defined as follows:
# where YT=yield of the treated plot, and where YU=yield of the untreated plot. For example, DY of 10% means the treated plot has yield that is 10% higher than the untreated plot. Negative Delta Yield means that the treated rice has lower yield than the untreated crop.
# Granule formulations of samples 7-3 and 7-4 are used to treat rice plants in open fields. Typical amount of 1-MCP treated range from 10 g active ingredient (a.i.)/hectare (or 4 g a.i./acre) to 100 g a.i./hectare (or 40 g a.i/acre).
# Optimum phonological stages of the rice plants range from maximum tillering through grain filling (for example at least one of: meiosis, complete open of flower, and grain filling). Typically only a single treatment of 1-MCP is performed before harvest, but multiple treatments of 1-MCP before harvest can also be performed. Treatment(s) of 1-MCP on rice plants show yield increase ranging from 14% to 28%, depending on the amount of 1-MCP and stage of treatment(s). Data of a field trial using single application of 50 g a.i./hectare 1-MCP with sample 7-3 (a granule formulation containing 1% 1-MCP) are shown in Table 9
smiles,measurement,setting,value
"CC1=CC1 [Sample 1-MCP, 1-methylcyclopropene]",Yield (kg/ha),individual treatments 8-1 to 8-4,7340 kg/ha and 7450 kg/ha and 7865 kg/ha and 7715 kg/ha
same,Mean (kg/ha),mean of treatments 8-1 to 8-4,7592.5 kg/ha
